Data as given in patent US12103919B2, “3-(5-oxy)-1-oxoisoindolin-2-yl)piperidine-2,6-dione derivatives and uses thereof” (NOVARTIS AG, priority 2021, dated 2024).
Read-outs that look alike come from different tables or passages of the source.

Assays:
WIZ = target: T1, WIZ (Homo sapiens, UniProt O95785+Q96SW2); experiment: Quantification of WIZ protein levels in HiBit tag fusion protein assay (293T cells); format: cell-based; design: Dmax: dose or concentration left out as unconfirmed; conditions: for DC50: read-out: WIZ AC50
T1 construct: expressed in transfected cells
T1 sequence (O95785 whole entry, the tested form may be a part): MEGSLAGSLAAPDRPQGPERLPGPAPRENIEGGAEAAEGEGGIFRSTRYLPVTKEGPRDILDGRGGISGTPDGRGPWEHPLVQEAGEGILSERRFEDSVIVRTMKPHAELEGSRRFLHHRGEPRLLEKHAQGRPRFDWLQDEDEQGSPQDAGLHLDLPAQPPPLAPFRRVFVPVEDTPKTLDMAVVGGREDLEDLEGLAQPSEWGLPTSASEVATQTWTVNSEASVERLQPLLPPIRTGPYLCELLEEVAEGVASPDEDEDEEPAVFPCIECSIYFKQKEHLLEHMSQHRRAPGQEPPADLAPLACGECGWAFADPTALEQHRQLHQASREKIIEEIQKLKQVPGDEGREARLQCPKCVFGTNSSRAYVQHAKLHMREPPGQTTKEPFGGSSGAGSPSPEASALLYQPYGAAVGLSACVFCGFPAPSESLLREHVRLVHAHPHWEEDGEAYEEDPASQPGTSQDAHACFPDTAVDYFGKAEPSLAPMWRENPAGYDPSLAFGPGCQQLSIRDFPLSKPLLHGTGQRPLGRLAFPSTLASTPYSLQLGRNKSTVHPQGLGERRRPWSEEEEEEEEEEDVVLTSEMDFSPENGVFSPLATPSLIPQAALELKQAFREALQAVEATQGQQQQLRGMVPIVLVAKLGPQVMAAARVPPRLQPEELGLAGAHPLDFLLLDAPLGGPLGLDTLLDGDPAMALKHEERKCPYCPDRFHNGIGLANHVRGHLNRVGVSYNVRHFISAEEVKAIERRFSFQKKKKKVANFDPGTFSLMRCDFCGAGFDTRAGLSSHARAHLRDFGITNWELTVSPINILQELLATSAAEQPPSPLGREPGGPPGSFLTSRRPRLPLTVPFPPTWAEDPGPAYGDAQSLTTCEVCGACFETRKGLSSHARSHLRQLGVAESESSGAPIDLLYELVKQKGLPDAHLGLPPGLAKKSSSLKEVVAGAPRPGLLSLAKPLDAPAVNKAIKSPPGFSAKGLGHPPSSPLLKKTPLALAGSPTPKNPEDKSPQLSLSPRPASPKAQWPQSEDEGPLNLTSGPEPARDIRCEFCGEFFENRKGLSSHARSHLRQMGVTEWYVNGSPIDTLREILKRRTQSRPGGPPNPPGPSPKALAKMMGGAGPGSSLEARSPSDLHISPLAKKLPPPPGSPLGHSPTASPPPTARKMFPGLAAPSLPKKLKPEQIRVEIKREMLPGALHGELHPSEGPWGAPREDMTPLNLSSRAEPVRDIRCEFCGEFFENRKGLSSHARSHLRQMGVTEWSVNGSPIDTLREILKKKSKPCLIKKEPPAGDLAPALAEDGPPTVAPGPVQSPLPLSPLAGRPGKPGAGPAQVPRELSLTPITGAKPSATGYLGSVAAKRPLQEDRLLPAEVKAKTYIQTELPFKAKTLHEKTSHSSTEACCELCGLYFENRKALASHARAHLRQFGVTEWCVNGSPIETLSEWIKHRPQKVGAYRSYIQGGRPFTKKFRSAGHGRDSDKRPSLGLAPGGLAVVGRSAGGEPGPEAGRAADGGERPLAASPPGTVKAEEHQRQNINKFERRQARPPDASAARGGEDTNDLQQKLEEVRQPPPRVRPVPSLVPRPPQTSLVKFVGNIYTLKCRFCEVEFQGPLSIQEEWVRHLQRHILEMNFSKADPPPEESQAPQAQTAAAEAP
T1 sequence (Q96SW2 whole entry, the tested form may be a part): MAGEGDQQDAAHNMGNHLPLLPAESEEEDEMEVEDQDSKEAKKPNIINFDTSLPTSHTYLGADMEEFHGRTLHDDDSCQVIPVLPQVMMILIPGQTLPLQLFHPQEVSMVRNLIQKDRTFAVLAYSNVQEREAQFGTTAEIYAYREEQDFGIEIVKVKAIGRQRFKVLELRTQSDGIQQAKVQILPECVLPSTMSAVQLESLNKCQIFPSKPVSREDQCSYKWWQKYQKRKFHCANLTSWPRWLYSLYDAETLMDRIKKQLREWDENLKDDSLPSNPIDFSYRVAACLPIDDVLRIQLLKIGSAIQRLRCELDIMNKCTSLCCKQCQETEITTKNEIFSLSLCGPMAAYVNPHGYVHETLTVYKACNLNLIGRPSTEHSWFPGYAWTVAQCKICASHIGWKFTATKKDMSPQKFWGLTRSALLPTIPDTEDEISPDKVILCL
T1 sequence (Q16531 whole entry partner, the tested form may be a part): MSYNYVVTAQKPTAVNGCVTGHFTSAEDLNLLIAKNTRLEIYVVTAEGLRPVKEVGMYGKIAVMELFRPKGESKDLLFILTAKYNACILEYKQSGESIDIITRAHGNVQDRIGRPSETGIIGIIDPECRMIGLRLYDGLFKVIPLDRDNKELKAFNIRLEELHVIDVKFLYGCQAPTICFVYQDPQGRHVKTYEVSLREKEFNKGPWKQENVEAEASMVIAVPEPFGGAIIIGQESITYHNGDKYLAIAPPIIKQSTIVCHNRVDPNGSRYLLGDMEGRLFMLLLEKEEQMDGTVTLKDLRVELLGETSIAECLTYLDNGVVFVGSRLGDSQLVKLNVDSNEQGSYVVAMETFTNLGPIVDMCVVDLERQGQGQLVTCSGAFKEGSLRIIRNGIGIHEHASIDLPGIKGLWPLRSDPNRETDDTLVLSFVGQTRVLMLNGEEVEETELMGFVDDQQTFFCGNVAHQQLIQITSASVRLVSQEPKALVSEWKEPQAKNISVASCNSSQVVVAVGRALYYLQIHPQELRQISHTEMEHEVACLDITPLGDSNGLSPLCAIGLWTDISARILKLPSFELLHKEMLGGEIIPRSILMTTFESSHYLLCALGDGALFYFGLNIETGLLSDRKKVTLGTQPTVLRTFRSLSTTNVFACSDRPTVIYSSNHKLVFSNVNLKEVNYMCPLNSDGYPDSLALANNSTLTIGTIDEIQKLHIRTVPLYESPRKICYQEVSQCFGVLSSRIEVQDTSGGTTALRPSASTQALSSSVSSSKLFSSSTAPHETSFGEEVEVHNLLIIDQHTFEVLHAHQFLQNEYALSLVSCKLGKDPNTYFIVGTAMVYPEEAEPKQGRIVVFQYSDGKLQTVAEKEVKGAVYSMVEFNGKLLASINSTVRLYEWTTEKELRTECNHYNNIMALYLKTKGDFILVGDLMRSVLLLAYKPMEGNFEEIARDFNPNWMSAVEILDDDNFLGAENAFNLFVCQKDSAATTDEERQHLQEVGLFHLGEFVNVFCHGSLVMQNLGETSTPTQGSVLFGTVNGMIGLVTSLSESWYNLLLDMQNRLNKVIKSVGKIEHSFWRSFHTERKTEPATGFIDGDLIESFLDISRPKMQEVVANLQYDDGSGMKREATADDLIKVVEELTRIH
Summary of the method: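 293T cells stably carrying a single-copy HiBit-WIZ fusion were exposed to compounds for about 18 hours at 37° C., top concentration 25 μM, 10-point 5-fold series. Lysates were complemented with LgBit and luminescence was read. Amax is the DMSO-normalized, curve-fitted percentage of WIZ-HiBit remaining at 25 uM.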

Fetal Hemoglobin (HbF) = experiment: Small molecule HbF induction assay in erythroid-differentiated mPB CD34+ cells (flow cytometry); format: cell-based, human; conditions: highest percentage of cells staining positive for HbF (% HbF+ cells) in fitted dose-response curve; DMSO baseline approximately 30-40%
Protocol: Cryopreserved primary human CD34^+ hematopoietic stem and progenitor cells were obtained from AllCeIIs, LLC. The CD34^+ cells were isolated from the peripheral blood of healthy donors after mobilization by administration of granulocyte colony-stimulating factor. Cells were differentiated ex vivo toward the erythroid lineage using a 2-phase culture method. In the first phase, cells were cultured in Stemspan™ Serum-Free Expansion Media (SFEM) ([…] Technologies Inc.) supplemented with rhSCF (50 ng/mL, Peprotech®, Inc.), rhlL-6 (50 ng/mL, Peprotech®, Inc.), rhlL-3 (50 ng/mL, Peprotech®, Inc.), and rhFlt3L (50 ng/mL, Peprotech®, Inc.), and 1× antibiotic-antimycotic (Life Technologies, Thermo Fisher Scientific) for 6 days at 37° C. with 5% CO2. During the second phase, cells were cultured in erythroid differentiation media at 5,000 cells/mL in the presence of compound for 7 days at 37° C. with 5% […]. Erythroid Differentiation Media is comprised of IMDM (Life Technologies) supplemented with insulin (10 μg/mL. Sigma Aldrich), heparin (2 U/mL Sigma Aldrich), holo-transferrin (330 μg/mL, Sigma Aldrich), human serum AB (5%, Sigma Aldrich), hydrocortisone (1 μM, […] Technologies), rhSCF (100 ng/mL, Peprotech®, Inc.), rhIL-3 (5 ng/mL. Peprotech®, Inc.), rhEPO (3 U/mL, Peprotech®, Inc.), and 1× antibiotic-antimycotic. All compounds were dissolved and diluted into dimethylsulfoxide (DMSO) and were added to culture media for a final concentration of 0.3% DMSO for testing in a 10-point, 1:3 dilution series starting at 10 uM.
For viability analysis, samples were washed and resuspended in phosphate-buffered saline (PBS) and stained with LlVE/DEAD™ Fixable Violet Dead Cell Stain Kit (Life Technologies, L34963) for 20 minutes. Cells were then washed again with PBS and resuspended in PBS supplemented with 2% fetal bovine serum (FBS), and 2 mM EDTA to prepare for cell surface marker analysis. […]
mPB CD34+ cells were expanded for 6 days, then erythroid differentiated in the presence of compound for 7 days. Cells were fixed, stained and analyzed by flow cytometry. […]

CCN1CCC[C@@H](Oc2ccc3c(c2)CN(C2CCC(=O)NC2=O)C3=O)C1 (mixture of isomers) [Example 1, 3-(5-(((R)-1-ethylpiperidin-3-yl)oxy)-1-oxoisoindolin-2-yl)piperidine-2,6-dione]
Dmax (WIZ; HEK-293T, read-out: % degradation of WIZ (100 − Amax)): 76%
remaining activity at 25 µM (WIZ; HEK-293T, read-out: WIZ Amax): 24%
DC50 (WIZ; WIZ HiBit assay in 293T cells, about 18 hours, 10-point 5-fold dilution, top 25 μM): 16 nM
DC50 (WIZ; updated arithmatic mean over the number of repeats specified, assay of Example 89): 16 nM
HbF Amax (Fetal Hemoglobin (HbF)): 66.5%
